Test results from US10961192B2, “(R)-4-hydroxy-2-oxo-1-pyrrolidineacetamide crystal form, preparation method therefor, and application thereof” (CHONGQING RUZER PHARMACEUTICAL COMPANY LIMITED, priority 2017, dated 2021).

Tests used:
Assay type in all cases: physicochemical
[1] = Stability test under high temperature conditions (60° C., 5 days), related substance; settings: for changes of the related substances in 5 days: high temperature of 60° C.; for Day 0: Related substance / Day 5: Related substance / Related material changes: 60° C.; for Day 0: Related substance: day 0, average of 5 groups; for Day 5: Related substance: day 5, average of 5 groups; for Related material changes: day 5 versus day 0
Protocol: Stability test of the crystalline form I of (R)-4-hydroxy-2-oxo-1-pyrrolidineacetamideunder high temperature conditions. The crystalline form I of (R)-4-hydroxy-2-oxo-1-pyrrolidinylacetamide prepared in Examples 1 and 3-7 was placed in a flat weighing bottle and spread into thin layers of <5 mm thick, sealed in a clean container respectively and placed at 60° C. for 5 days; samples were taken and detected on day 0 and day 5, respectively.

[2] = Solubility in water
[3] = Angle of repose by injection method (fixed funnel method); settings: average of 5 groups
Protocol: (§1) In this test, the angle of repose of the crystalline form I of (R)-4-hydroxy-2-oxo-1-pyrrolidineacetamide prepared by the methods of Examples 1 and 3-7 was measured by an injection method (fixed funnel method). The samples to be tested were poured into the funnel, and they were gently and evenly dropped into the center of the disc to form a cone, when the materials fell freely from the oblique edge of the powder along the edge of the disc, the feedings were stopped, and the angles of repose were determined by the protractor; the sample traits and the clarity of the solution were examined, each example was tested for 5 groups and the average was obtained, the results are as follows: […]

[4] = Clarity of solution; settings: average of 5 groups
Protocol: as §1

changes of the related substances in 5 days [1]	changes of the related substances in 5 days ([1]; listed as crystalline form of (R)-4-hydroxy-2-oxo-1-pyrrolidineacetamide)	solubility [2] [mg/mL]	angle of repose [3] [°]	Day 0: Related substance [1] [%]	Day 5: Related substance [1] [%]	Related material changes [1] [%]	clarity of solution [4]	Compound
less than 0.15%	tiny	≥ 100						NC(=O)CN1C[C@H](O)CC1=O [(R)-4-hydroxy-2-oxo-1-pyrrolidineacetamide]
			28	0.23	0.35	0.12	clarification	NC(=O)CN1C[C@H](O)CC1=O [Example 1, (R)-4-hydroxy-2-oxo-1-pyrrolidineacetamide]
			28.3	0.22	0.36	0.14	clarification	NC(=O)CN1C[C@H](O)CC1=O [Example 3, (R)-4-hydroxy-2-oxo-1-pyrrolidineacetamide]
			28.5	0.26	0.39	0.13	clarification	NC(=O)CN1C[C@H](O)CC1=O [Example 4, (R)-4-hydroxy-2-oxo-1-pyrrolidineacetamide]
			27.8	0.25	0.37	0.12	clarification	NC(=O)CN1C[C@H](O)CC1=O [Example 5, (R)-4-hydroxy-2-oxo-1-pyrrolidineacetamide]
			27.8	0.26	0.37	0.11	clarification	NC(=O)CN1C[C@H](O)CC1=O [Example 6, (R)-4-hydroxy-2-oxo-1-pyrrolidineacetamide]
			28	0.22	0.33	0.11	clarification	NC(=O)CN1C[C@H](O)CC1=O [Example 7, (R)-4-hydroxy-2-oxo-1-pyrrolidineacetamide]
